This passage reports Accuracy and toxic side effects results from patent US12105070B2, “LC-MS/MS method for measurement of Aloesin in rat plasma” (HAINAN MEDICAL UNIVERSITY, priority 2020, dated 2024).

Structures are written as SMILES.

Series [1] can be described thus: Stability of aloesin in plasma samples (LC-MS/MS quality control samples). The format is in vitro ADME, rat. The procedure: Prepare 3 concentrations of aloesin quality control samples (500 ng·mL^−1, 50 ng·mL^−1, 3 ng·mL^−1) with blank plasma, and examine the stability under the following conditions.
(1) After the sample is processed, it is placed in the autosampler for 8 hours, and then the sample is injected for analysis;
(2) The sample is processed after 3 freeze-thaw cycles, and the sample is injected for analysis;
(3) The sample is placed at room temperature for 4 hours and then comes out, and the sample is injected for analysis;
(4) The sample is processed after the sample is stored at −20° C. for 15 days, and then the sample is injected for analysis.
The stability inspection is qualified.

The conditions of series [2]: toxicological studies, no details given; cited from earlier work.

`CC(=O)Cc1cc(=O)c2c(C)cc(O)c([C@@H]3O[C@H](CO)[C@@H](O)[C@H](O)[C@H]3O)c2o1` [aloesin]: the Accuracy in series [1] (3 ng·ml^-1 in plasma, 3 freeze-thaw cycles) came to 109.60%; in series [1] (3 ng·ml^-1 in plasma, processed sample in autosampler 8 h) it was 109.20%; in series [1] (3 ng·ml^-1 in plasma, room temperature for 4 hours) it was 106.18%; in series [1] (3 ng·ml^-1 in plasma, stored at -20° C. for 15 days) it was 108.00%; in series [1] (50 ng·ml^-1 in plasma, 3 freeze-thaw cycles), 109.40%; in series [1] (50 ng·ml^-1 in plasma, processed sample in autosampler 8 h) it was 108.20%. Further, the Accuracy in series [1] (50 ng·ml^-1 in plasma, room temperature for 4 hours) is 105.20%; in series [1] (50 ng·ml^-1 in plasma, stored at -20° C. for 15 days) it was 100.14%; in series [1] (500 ng·ml^-1 in plasma, 3 freeze-thaw cycles), 105.20%; in series [1] (500 ng·ml^-1 in plasma, processed sample in autosampler 8 h) it was 102.60%; in series [1] (500 ng·ml^-1 in plasma, room temperature for 4 hours), 101.80%; in series [1] (500 ng·ml^-1 in plasma, stored at -20° C. for 15 days) it was 94.66%. In addition, the toxic side effects result in series [2] was “basically no toxic side effects”.
